Each structure is given as a SMILES string.

The target in the first test is T1, mTOR (Homo sapiens, UniProt P42345).
T1 construct: FLAG; made in house
T1 sequence (P42345 1362-2549): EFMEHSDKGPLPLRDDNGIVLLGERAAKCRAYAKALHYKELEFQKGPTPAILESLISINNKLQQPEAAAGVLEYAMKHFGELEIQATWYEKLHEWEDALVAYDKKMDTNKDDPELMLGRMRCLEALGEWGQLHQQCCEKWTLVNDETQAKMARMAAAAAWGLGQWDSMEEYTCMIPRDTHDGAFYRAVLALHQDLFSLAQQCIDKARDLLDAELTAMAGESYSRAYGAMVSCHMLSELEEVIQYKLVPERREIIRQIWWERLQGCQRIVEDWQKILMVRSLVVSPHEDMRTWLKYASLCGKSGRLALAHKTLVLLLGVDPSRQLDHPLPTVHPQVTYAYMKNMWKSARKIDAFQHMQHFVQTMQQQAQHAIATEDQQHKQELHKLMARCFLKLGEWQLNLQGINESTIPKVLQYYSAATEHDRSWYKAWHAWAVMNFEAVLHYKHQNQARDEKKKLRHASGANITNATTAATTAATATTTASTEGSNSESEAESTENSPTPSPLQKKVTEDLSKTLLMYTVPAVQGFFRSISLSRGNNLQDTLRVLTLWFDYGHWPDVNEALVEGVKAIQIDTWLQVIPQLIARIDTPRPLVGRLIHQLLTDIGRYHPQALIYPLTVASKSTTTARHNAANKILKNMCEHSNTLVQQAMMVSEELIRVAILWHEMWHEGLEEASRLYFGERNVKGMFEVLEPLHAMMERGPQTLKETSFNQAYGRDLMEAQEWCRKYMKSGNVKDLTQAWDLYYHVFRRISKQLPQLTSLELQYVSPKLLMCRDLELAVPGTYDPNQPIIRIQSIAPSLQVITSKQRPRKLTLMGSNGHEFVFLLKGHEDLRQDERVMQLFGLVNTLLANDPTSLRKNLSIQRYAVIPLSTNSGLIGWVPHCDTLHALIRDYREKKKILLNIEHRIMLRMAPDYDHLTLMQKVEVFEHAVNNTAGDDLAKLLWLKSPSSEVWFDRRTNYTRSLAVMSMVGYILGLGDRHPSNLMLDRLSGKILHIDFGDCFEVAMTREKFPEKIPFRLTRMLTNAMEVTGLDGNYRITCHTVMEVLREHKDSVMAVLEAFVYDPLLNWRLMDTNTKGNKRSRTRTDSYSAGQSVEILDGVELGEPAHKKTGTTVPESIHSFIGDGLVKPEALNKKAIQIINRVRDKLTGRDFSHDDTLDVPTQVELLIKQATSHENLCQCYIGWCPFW
Briefly: In Vitro mTOR Kinase Assay (Echo), Test (a)(ii). The class given is biochemical. To be noted: read-out: mTOR Kinase Assay (Echo). In a few lines: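 AlphaScreen read-out: biotinylated substrate phosphorylation was detected with anti-p70 S6K (T389) 1A5 antibody, Protein A acceptor and streptavidin donor beads after overnight dark incubation at room temperature. Enzyme was FLAG-mTOR 1362-2549 from stable HEK293 cells.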
As for `C[C@H]1COCCN1c1cc(C2(S(C)(=O)=O)CC2)nc(-c2ccc(NC(=O)NCC3CC3)cc2)n1` [Example 2m, 3-(cyclopropylmethyl)-1-[4-[4-[(3S)-3-methylmorpholin-4-yl]-6-(1-methylsulfonylcyclopropyl)pyrimidin-2-yl]phenyl]urea], the IC50 came out at 5.89 nM.
Consider `CC(C)NC(=O)Nc1ccc(-c2nc(N3CCOC[C@@H]3C)cc(C3(S(=O)(=O)c4ccccc4C(F)(F)F)CC3)n2)cc1` [Example 10d, 1-[4-[4-[(3S)-3-methylmorpholin-4-yl]-6-[1-[2-(trifluoromethyl)phenyl]sulfonylcyclopropyl]pyrimidin-2-yl]phenyl]-3-propan-2-yl-urea], for which the IC50 came out at 43.2 nM.
The same measure, in the same setting: for `CC(C)S(=O)(=O)C1(c2cc(N3CCOC[C@@H]3C)nc(-c3ccc(NC(=O)Nc4cnn(C)c4)cc3)n2)CC1` [Example 7m, 1-[4-[4-[(3S)-3-methylmorpholin-4-yl]-6-(1-propan-2-ylsulfonylcyclopropyl)pyrimidin-2-yl]phenyl]-3-(1-methylpyrazol-4-yl)urea] the value was 5.04 nM.
For the compound `CCCNC(=O)Nc1ccc(-c2nc(N3CCOCC3)cc(C3(S(C)(=O)=O)CC3)n2)cc1` [Example 12g, 1-[4-[4-(1-methylsulfonylcyclopropyl)-6-morpholin-4-ylpyrimidin-2-yl]phenyl]-3-propylurea], the IC50 is 2.73 nM.
On the same count and under the same terms, under `C[C@H]1COCCN1c1cc(C2(S(=O)(=O)C3CC3)CC2)nc(-c2ccc(NC(=O)NCC(C)(C)CO)cc2)n1` [Example 3n, 1-[4-[4-(1-cyclopropylsulfonylcyclopropyl)-6-[(3S)-3-methylmorpholin-4-yl]pyrimidin-2-yl]phenyl]-3-(3-hydroxy-2,2-dimethylpropyl)urea] stands 39.6 nM.

The same test, now with this note: table of enzyme assay Test (a)(ii); read-out: Test (a)(ii) IC50.
For `C[C@H]1COCCN1c1cc(C2(S(=O)(=O)c3ccc(NCCO)c(F)c3)CC2)nc(-c2ccc(NC(=O)NCCO)cc2)n1` [Example 64n, 1-[4-[4-[1-[3-fluoro-4-(2-hydroxyethylamino)phenyl]sulfon-ylcyclopropyl]-6-[(3S)-3-methylmorpholin-4-yl]pyrimidin-2-yl]phenyl]-3-(2-hydroxyethyl)urea], the IC50 is 16.1 nM.
The same measure, in the same setting: under `C[C@@H](CO)NC(=O)Nc1ccc(-c2nc(N3CCOC[C@@H]3C)cc(C3(S(=O)(=O)c4ccncc4)CCC3)n2)cc1` [Example 83a, 3-[(2S)-1-hydroxypropan-2-yl]-1-[4-[4-[(3S)-3-methylmorpholin-4-yl]-6-(1-pyridin-4-ylsulfonylcyclobutyl)pyrimidin-2-yl]phenyl]urea] stands 4.83 nM; under `C[C@H]1COCCN1c1cc(C2(S(=O)(=O)CCCO)CC2)nc(-c2ccc(NC(=O)NC(C)(C)C)cc2)n1` [Example 36cn, 3-tert-butyl-1-[4-[4-[1-(3-hydroxypropylsulfonyl)cyclopropyl]-6-[(3S)-3-methylmorpholin-4-yl]pyrimidin-2-yl]phenyl]urea], 85.8 nM.
Same read-out and setting: under `C[C@H]1COCCN1c1cc(C2(S(=O)(=O)c3ccccn3)CC2)nc(-c2ccc(NC(=O)Nc3cnn(C)c3)cc2)n1` [Example 28l, 1-[4-[4-[(3S)-3-methylmorpholin-4-yl]-6-(1-pyridin-2-ylsulfonylcyclopropyl)pyrimidin-2-yl]phenyl]-3-(1-methylpyrazol-4-yl)urea] stands 0.442 nM.
On the same count and under the same terms, under `Cc1csc(S(=O)(=O)C2(c3cc(N4CCOC[C@@H]4C)nc(-c4ccc(NC(=O)NCCC#N)cc4)n3)CCCC2)n1` [Example 36dm, 3-(2-cyanoethyl)-1-[4-[4-[(3S)-3-methylmorpholin-4-yl]-6-[1-[(4-methyl-1,3-thiazol-2-yl)sulfonyl]cyclopentyl]pyrimidin-2-yl]phenyl]urea] stands 29.8 nM.
Consider `Cc1ccc(F)cc1S(=O)(=O)C1(c2cc(N3CCOC[C@@H]3C)nc(-c3ccc(NC(=O)NCCF)cc3)n2)CC1` [Example 61c, 3-(2-fluoroethyl)-1-[4-[4-[1-(5-fluoro-2-methylphenyl)sulfonylcyclopropyl]-6-[(3S)-3-methylmorpholin-4-yl]pyrimidin-2-yl]phenyl]urea], for which the IC50 worked out at 21.1 nM.
Same read-out and setting: for `CCS(=O)(=O)C1(c2cc(N3CCOC[C@@H]3C)nc(-c3ccc(NC(=O)NCCF)cc3)n2)CC1` [Example 36ef, 1-[4-[4-(1-ethylsulfonylcyclopropyl)-6-[(3S)-3-methylmorpholin-4-yl]pyrimidin-2-yl]phenyl]-3-(2-fluorethyl)urea] the value was 8.41 nM.
For the compound `C[C@H]1COCCN1c1cc(C2(S(=O)(=O)c3cc(F)cc(F)c3)CC2)nc(-c2ccc(NC(=O)NCCN(C)C)cc2)n1` [Example 19f, 1-[4-[4-[1-(3,5-difluorophenyl)sulfonylcyclopro-pyl]-6-[(3S)-3-methylmorpholin-4-yl]pyrimidin-2-yl]phenyl]-3-(2-dimethylaminoethyl)urea], the IC50 worked out at 80.4 nM.
The same measure, in the same setting: under `N#CCCNC(=O)Nc1ccc(-c2nc(N3CCOCC3)cc(C3(S(=O)(=O)c4ccncc4)CC3)n2)cc1` [Example 36aw, 3-(2-cyanoethyl)-1-[4-[4-morpholin-4-yl-6-(1-pyridin-4-ylsulfonylcyclopropyl)pyrimidin-2-yl]phenyl]urea] stands 16.4 nM; under `Cc1csc(S(=O)(=O)C2(c3cc(N4CCOC[C@@H]4C)nc(-c4ccc(NC(=O)N[C@@H](C)CO)cc4)n3)CC2)n1` [Example 64ac, 3-[(2S)-1-hydroxypropan-2-yl]-1-[4-[4-[(3S)-3-methylmorpholin-4-yl]-6-[1-[(4-methyl-1,3-thiazol-2-yl)sulfonyl]cyclopropyl]pyrimidin-2-yl]phenyl]urea], 5.29 nM; under `C[C@H]1COCCN1c1cc(C2(S(=O)(=O)CCCO)CC2)nc(-c2ccc(NC(=O)NC(C)(C)CO)cc2)n1` [Example 31m, 3-(1-hydroxy-2-methylpropan-2-yl)-1-[4-[4-[1-(3-hydroxypropylsulfonyl)cyclopropyl]-6-[(3S)-3-methylmorpholin-4-yl]pyrimidin-2-yl]phenyl]urea], 5.91 nM.
Take `C[C@@H](CO)NC(=O)Nc1ccc(-c2nc(N3CCOC[C@@H]3C)cc(C3(S(=O)(=O)c4nccs4)CCC3)n2)cc1` [Example 98h, 3-[(2S)-1-hydroxypropan-2-yl]-1-[4-[4-[(3S)-3-methylmorpholin-4-yl]-6-[1-(1,3-thiazol-2-ylsulfonyl)cyclobutyl]pyrimidin-2-yl]phenyl]urea]: the IC50 came out at 3.62 nM.
The same measure, in the same setting: for `CNC(=O)Nc1ccc(-c2nc(N3CCOCC3)cc(C3(C(=O)NC4CC4)CC3)n2)cc1` [Example 32b, N-cyclopropyl-1-[2-[4-(methylcarbamoylamino)phenyl]-6-morpholin-4-ylpyrimidin-4-yl]cyclopropane-1-carboxamide] the value was 8.29 nM; for `C[C@H](CO)NC(=O)Nc1ccc(-c2nc(N3CCOC[C@@H]3C)cc(C3(S(=O)(=O)c4ccncc4)CCC3)n2)cc1` [Example 83b, 3-[(2R)-1-hydroxypropan-2-yl]-1-[4-[4-[(3S)-3-methylmorpholin-4-yl]-6-(1-pyridin-4-ylsulfonylcyclobutyl)pyrimidin-2-yl]phenyl]urea], 11.4 nM; for `C[C@H]1COCCN1c1cc(C2(S(=O)(=O)CCCO)CCC2)nc(-c2ccc(NC(=S)NCc3ncc[nH]3)cc2)n1` [Example 99c, 1-[4-[4-[1-(3-hydroxypropylsulfonyl)cyclobutyl]-6-[(3S)-3-methylmorpholin-4-yl]pyrimidin-2-yl]phenyl]-3-(1H-imidazol-2-ylmethyl)thiourea], 239 nM.
Turning to `C[C@H]1COCCN1c1cc(C2(S(=O)(=O)c3ccc(F)cc3F)CC2)nc(-c2ccc(NC(=O)NC3CC3)cc2)n1` [Example 57a, 3-cyclopropyl-1-[4-[4-[1-(2,4-difluorophenyl)sulfonylcyclopro-pyl]-6-[(3S)-3-methylmorpholin-4-yl]pyrimidin-2-yl]phenyl]urea], the IC50 came out at 10.4 nM.
The same measure, in the same setting: under `CCCNC(=O)Nc1ccc(-c2nc(N3CCOC[C@@H]3C)cc(C3(S(=O)(=O)c4ccccc4)CC3)n2)cc1` [Example 36bi, 3-[4-[4-[1-(benzenesulfonyl)cyclopropyl]-6-[(3S)-3-methylmorpholin-4-yl]pyrimidin-2-yl]phenyl]-1-propylurea] stands 2.31 nM.
Still for that read-out and setting: for `CNC(=O)Nc1ccc(-c2nc(N3CCOCC3)cc(C3(C(=O)N4CCOC[C@@H]4C)CC3)n2)cc1` [Example 32a, 3-methyl-1-[4-[4-[1-[(3S)-3-methylmorpholine-4-carbonyl]cyclopropyl]-6-morpholin-4-ylpyrimidin-2-yl]phenyl]urea] the value was 42.5 nM; for `C[C@H]1COCCN1c1cc(C2(S(=O)(=O)CCCO)CCC2)nc(-c2ccc(NC(=S)NCC(F)F)cc2)n1` [Example 99g, 3-(2,2-difluoroethyl)-1-[4-[4-[1-(3-hydroxypropylsulfonyl)cyclobutyl]-6-[(3S)-3-methylmorpholin-4-yl]pyrimidin-2-yl]phenyl]thiourea], 15.2 nM; for `C[C@H]1COCCN1c1cc(C2(S(=O)(=O)c3ccccc3)CC2)nc(-c2ccc(NC(=O)NC3COC3)cc2)n1` [Example 36bp, 1-[4-[4-[1-(benzenesulfonyl)cyclopropyl]-6-[(3S)-3-methylmorpholin-4-yl]pyrimidin-2-yl]phenyl]-3-(oxetan-3-yl)urea], 1.98 nM.
On the same count and under the same terms, under `CNC(=O)Nc1ccc(-c2nc(N3CCOC[C@@H]3C)cc(C3(S(=O)(=O)c4c(C)nn(C(F)F)c4C)CC3)n2)cc1` [Example 75a, 1-[4-[4-[1-[1-(difluoromethyl)-3,5-dimethylpyrazol-4-yl]sulfonylcyclopropyl]-6-[(3S)-3-methylmorpholin-4-yl]pyrimidin-2-yl]phenyl]-3-methylurea] stands 43.5 nM.
Take `CCS(=O)(=O)C1(c2cc(N3CCOC[C@@H]3C)nc(-c3ccc(NC(=S)NCc4ncc[nH]4)cc3)n2)CCC1` [Example 88b, 1-[4-[4-(1-ethylsulfonylcyclobutyl)-6-[(3S)-3-methylmorpholin-4-yl]pyrimidin-2-yl]phenyl]-3-(1H-imidazol-2-ylmethyl)thiourea]: the IC50 stood at 56.7 nM.

(Values after US20090018134A1, “Compounds - 945” (AstraZeneca AB, priority 2007, published 2009).)
